From patent US12398120B2, “Substituted hydantoinamides as ADAMTS7 antagonists” (BAYER AKTIENGESELLSCHAFT, priority 2019, dated 2025) come the findings set out here.

Each structure is given as a SMILES string. pIC50: −log10 of the molar value.

For the assay, the target named is ADAMTS4 (Homo sapiens (Human), UniProt O75173). Put plainly: Selectivity assay for ADAMTS-7 modulators: ADAMTS4 (FRET substrate). The format is biochemical. Particulars: ADAMTS4 (R&D 4307-AD) 50 nM, substrate Dabcyl-EEVKAKVQPY-Glu(Edans)-NH2 1 μM, 120 min, 32° C. As for the experimental part: 1 μl test compound solution (dissolved in DMSO, at the corresponding concentration) or pure DMSO as a control was added per well. The enzymatic reaction was initiated by addition of 25 μl of the respective concentration of the respective FRET substrate (see table 2 below) in reaction buffer.
ADAMTS4, sequence (O75173 213-685): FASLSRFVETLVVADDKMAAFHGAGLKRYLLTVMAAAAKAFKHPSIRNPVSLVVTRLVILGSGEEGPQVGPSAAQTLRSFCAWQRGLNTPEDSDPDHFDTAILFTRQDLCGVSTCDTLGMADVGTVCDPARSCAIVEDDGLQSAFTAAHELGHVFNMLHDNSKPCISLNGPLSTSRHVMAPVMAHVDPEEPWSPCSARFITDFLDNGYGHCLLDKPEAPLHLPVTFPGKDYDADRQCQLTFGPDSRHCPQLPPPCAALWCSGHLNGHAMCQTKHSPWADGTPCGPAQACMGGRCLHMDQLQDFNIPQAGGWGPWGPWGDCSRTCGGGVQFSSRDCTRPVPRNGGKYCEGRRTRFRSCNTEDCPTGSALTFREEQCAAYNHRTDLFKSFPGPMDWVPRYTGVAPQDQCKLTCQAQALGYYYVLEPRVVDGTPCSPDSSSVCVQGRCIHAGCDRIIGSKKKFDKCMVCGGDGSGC
The increase of fluorescence intensity was measured in appropriate fluorescence plate reader (e.g. TECAN Ultra) using the respective wavelengths for excitation and emission. IC50 values were calculated from percentage of inhibition of enzyme activity as a function of test compound concentration.
`O=C1NC(=O)[C@](CNC(=O)c2ccc(F)c(F)c2-c2ccc(C(F)(F)F)cc2)(C2CC2)N1` [Example 23, N-{[(4R)-4-Cyclopropyl-2,5-Dioxoimidazolidin-4-Yl]Methyl}-5,6-Difluoro-4′-(Trifluoromethyl)[Biphenyl]-2-Carboxamide]: the pIC50 was 4.90.
Then `Cn1nccc1C1(CNC(=O)c2ccc(Cl)cc2-c2ccc(Cl)cc2)NC(=O)NC1=O` (single isomer, unassigned; ent-4) [Example 193, Ent-4′,5-Dichloro-N-{[4-(1-Methyl-1H-Pyrazol-5-Yl)-2,5-Dioxoimidazolidin-4-Yl]Methyl}[Biphenyl]-2-Carboxamide], with 5.80.
The compound `Cc1ccc(C(=O)NCC2(c3ncsc3C)NC(=O)NC2=O)c(-c2ccc(C(F)(F)F)cc2)c1` (single isomer, unassigned; ent-5) [Example 168, Ent-5-Methyl-N-{[4-(5-Methyl-1,3-Thiazol-4-Yl)-2,5-Dioxoimidazolidin-4-Yl]Methyl}-4′-(Trifluoromethyl)[Biphenyl]-2-Carboxamide] gave a negative-log IC50 (pIC50) of 5.72. This pIC50 and that of the compound before are within 0.2 log units of each other.
Then `Cc1ccc(-c2cnccc2C(=O)NC[C@@]2(C3CC3)NC(=O)NC2=O)cc1` [Example 19, N-{[(4R)-4-Cyclopropyl-2,5-Dioxoimidazolidin-4-Yl]Methyl}-3-(4-Methylphenyl)Isonicotinamide], with < 4.30; and `Cc1ccc(C(=O)NCC2(C3CCC3)NC(=O)NC2=O)c(-c2ccc(C(F)(F)F)cc2)c1` (stereo not drawn) [Example 238, Ent-N-[(4-Cyclobutyl-2,5-Dioxoimidazolidin-4-Yl)Methyl]-5-Methyl-4′-(Trifluoromethyl)[Biphenyl]-2-Carboxamide], with 5.70.
Then `CCn1nccc1C1(CNC(=O)c2ccccc2-c2ccc(C(F)(F)F)cc2)NC(=O)NC1=O` (racemic) [Example 4, Rac-N-{[4-(1-Ethyl-1H-Pyrazol-5-Yl)-2,5-Dioxoimidazolidin-4-Yl]Methyl}-4′-(Trifluoromethyl)[Biphenyl]-2-Carboxamide], with 4.72.
The compound `Cn1nccc1C1(CNC(=O)c2ccc(C(F)F)cc2-c2ccc(C(F)(F)F)cc2)NC(=O)NC1=O` (single isomer, unassigned; ent-5) [Example 309, Ent-5-(Difluoromethyl)-N-{[4-(1-Methyl-1H-Pyrazol-5-Yl)-2,5-Dioxoimidazolidin-4-Yl]Methyl}-4′-(Trifluoromethyl)[Biphenyl]-2-Carboxamide] gave a pIC50 of 5.57.
Then `Cc1ccc(-c2ncccc2C(=O)NC[C@@]2(C3CC3)NC(=O)NC2=O)cc1` [Example 132, N-{[(4R)-4-Cyclopropyl-2,5-Dioxoimidazolidin-4-Yl]Methyl}-2-(4-Methylphenyl)Nicotinamide], with 4.44; and `O=C1NC(=O)[C@](CNC(=O)c2ccc(F)cc2-c2ccc(Cl)cc2)(C2CC2)N1` [Example 126, 4′-Chloro-N-{[(4R)-4-Cyclopropyl-2,5-Dioxoimidazolidin-4-Yl]Methyl}-5-Fluoro[Biphenyl]-2-Carboxamide], with 4.96.
`O=C1NC(=O)C(CNC(=O)c2ccc(F)cc2-c2ccc(C(F)(F)F)cc2)(c2cscn2)N1` (stereo not drawn) [Example 199, Ent-N-{[2,5-Dioxo-4-(1,3-Thiazol-4-Yl)Imidazolidin-4-Yl]Methyl}-5-Fluoro-4′-(Trifluoromethyl)[Biphenyl]-2-Carboxamide] gave a pIC50 of 4.80. This pIC50 and that of the compound before are within 0.2 log units of each other.
Then `O=C1NC(=O)[C@](CNC(=O)c2ccc(OC(F)(F)F)cc2-c2ccc(C(F)(F)F)cc2)(C2CC2)N1` [Example 92, N-{[(4R)-4-Cyclopropyl-2,5-Dioxoimidazolidin-4-Yl]Methyl}-5-(Trifluoromethoxy)-4′-(Trifluoromethyl)[1,1′-Biphenyl]-2-Carboxamide], with 4.72.
Then `CC1(CNC(=O)c2ccccc2-c2ccc(C(F)(F)F)cc2)NC(=O)NC1=O` (racemic) [Example 95, Rac-N-[(4-Methyl-2,5-Dioxoimidazolidin-4-Yl)Methyl]-4′-(Trifluoromethyl)[Biphenyl]-2-Carboxamide], with < 4.30; and `Cc1ccc(C(=O)NC[C@@]2(C3CC3)NC(=O)NC2=O)c(-c2ccc(C3CC3(F)F)cc2)c1` (single isomer, unassigned) [Example 138], with 5.31; and `Cn1nccc1C1(CNC(=O)c2ccc(F)c(F)c2-c2ccc(C(F)(F)F)cc2)NC(=O)NC1=O` (single isomer, unassigned; ent-5) [Example 191, Ent-5,6-Difluoro-N-{[4-(1-Methyl-1H-Pyrazol-5-Yl)-2,5-Dioxoimidazolidin-4-Yl]Methyl}-4′-(Trifluoromethyl)[Biphenyl]-2-Carboxamide], with 5.19.
Then `Cn1nccc1C1(CNC(=O)c2cccc(F)c2-c2ccc(C(F)(F)F)cc2)NC(=O)NC1=O` (single isomer, unassigned; ent-6) [Example 195, Ent-6-Fluoro-N-{[4-(1-Methyl-1H-Pyrazol-5-Yl)-2,5-Dioxoimidazolidin-4-Yl]Methyl}-4′-(Trifluoromethyl)[Biphenyl]-2-Carboxamide], with 5.33; and `O=C1NC(=O)C(CNC(=O)c2ccccc2-c2ccc(Cl)cc2)(C2CC(F)(F)C2)N1` (racemic) [Example 246, Rac-4′-Chloro-N-{[4-(3,3-Difluorocyclobutyl)-2,5-Dioxoimidazolidin-4-Yl]Methyl}[Biphenyl]-2-Carboxamide], with < 4.30; and `Cc1nc(C)c(C2(CNC(=O)c3ccccc3-c3ccc(C(F)(F)F)cc3)NC(=O)NC2=O)s1` (stereo not drawn) [Example 47, Ent-N-{[4-(2,4-Dimethyl-1,3-Thiazol-5-Yl)-2,5-Dioxoimidazolidin-4-Yl]Methyl}-4′-(Trifluoromethyl)[Biphenyl]-2-Carboxamide], with 5.38.
`Cc1ccc(-c2ccccc2C(=O)NCC2(c3nccs3)NC(=O)NC2=O)cc1` (stereo not drawn) [Example 201, Ent-N-{[2,5-Dioxo-4-(1,3-Thiazol-2-Yl)Imidazolidin-4-Yl]Methyl}-4′-Methyl[Biphenyl]-2-Carboxamide]: the negative logarithm of the IC50 (pIC50) is 5.09. Against the preceding compound, the pIC50 is 0.29 log units lower.
Then `O=C1NC(=O)[C@](CNC(=O)c2cc(F)c(F)cc2-c2ccc(C(F)(F)F)cc2)(C2CC2)N1` [Example 20, N-{[(4R)-4-Cyclopropyl-2,5-Dioxoimidazolidin-4-Yl]Methyl}-4,5-Difluoro-4′-(Trifluoromethyl)[Biphenyl]-2-Carboxamide], with 4.55; and `Cc1c(C2(CNC(=O)c3ccccc3-c3ccc(C(F)(F)F)cc3)NC(=O)NC2=O)cnn1CC(F)(F)F` (racemic) [Example 98, Rac-N-({4-[5-Methyl-1-(2,2,2-Trifluoroethyl)-1H-Pyrazol-4-Yl]-2,5-Dioxoimidazolidin-4-Yl}Methyl)-4′-(Trifluoromethyl)[Biphenyl]-2-Carboxamide], with 4.68.
In turn, `Cc1nsnc1C1(CNC(=O)c2ccccc2-c2ccc(C(F)(F)F)cc2)NC(=O)NC1=O` (racemic) [Example 62, Rac-N-{[4-(4-Methyl-1,2,5-Thiadiazol-3-Yl)-2,5-Dioxoimidazolidin-4-Yl]Methyl}-4′-(Trifluoromethyl)[Biphenyl]-2-Carboxamide] showed a pIC50 of 4.59.
Then `CC(C)(C)C1(CNC(=O)c2ccccc2-c2ccc(C(F)(F)F)cc2)NC(=O)NC1=O` (racemic) [Example 25, Rac-N-[(4-Tert-Butyl-2,5-Dioxoimidazolidin-4-Yl)Methyl]-4′-(Trifluoromethyl)[Biphenyl]-2-Carboxamide], with < 4.30.
Compound `O=C1NC(=O)C(CNC(=O)c2ccccc2-c2ccc(Cl)cc2)(C2(F)CC2)N1` (racemic) [Example 250, Rac-4′-Chloro-N-{[4-(1-Fluorocyclopropyl)-2,5-Dioxoimidazolidin-4-Yl]Methyl}[Biphenyl]-2-Carboxamide] showed a pIC50 of 4.51.
Then `Cc1cnn(C)c1C1(CNC(=O)c2ccccc2-c2ccc(C(F)(F)F)nc2)NC(=O)NC1=O` (racemic) [Example 52, Rac-N-{[4-(1,4-Dimethyl-1H-Pyrazol-5-Yl)-2,5-Dioxoimidazolidin-4-Yl]Methyl}-2-[6-(Trifluoromethyl)Pyridin-3-Yl]Benzamide], with 4.72.
As for `Cc1nscc1C1(CNC(=O)c2ccccc2-c2ccc(C(F)(F)F)cc2)NC(=O)NC1=O` (racemic) [Example 63, Rac-N-{[4-(3-Methyl-1,2-Thiazol-4-Yl)-2,5-Dioxoimidazolidin-4-Yl]Methyl}-4′-(Trifluoromethyl)[Biphenyl]-2-Carboxamide], the pIC50 was 4.89. This pIC50 and that of the compound before are within 0.2 log units of each other.
Then `O=C1NC(=O)C(CNC(=O)c2ccccc2-c2ccc(C(F)(F)F)cc2)(c2cccnn2)N1` (racemic) [Example 42, Rac-N-{[2,5-Dioxo-4-(Pyridazin-3-Yl)Imidazolidin-4-Yl]Methyl}-4′-(Trifluoromethyl)[Biphenyl]-2-Carboxamide], with < 4.30.
`Cn1nccc1C1(CNC(=O)c2ccc(F)cc2-c2ccc(Cl)cc2)NC(=O)NC1=O` (racemic) [Example 179, Rac-4′-Chloro-5-Fluoro-N-{[4-(1-Methyl-1H-Pyrazol-5-Yl)-2,5-Dioxoimidazolidin-4-Yl]Methyl}[Biphenyl]-2-Carboxamide] gave a pIC50 of 4.92.
Then `Cc1ccc(C(=O)NCC2(C(C)C)NC(=O)NC2=O)c(-c2ccc(C(F)(F)F)cc2)c1` (racemic) [Example 202, Rac-N-[(4-Isopropyl-2,5-Dioxoimidazolidin-4-Yl)Methyl]-5-Methyl-4′-(Trifluoromethyl)[Biphenyl]-2-Carboxamide], with 4.42.
On to `Cc1ccc(C(=O)NC[C@@]2(C3CC3)NC(=O)NC2=O)c(-c2ccc(C3CC3(F)F)cc2)c1` (stereo partly drawn) [Example 136, N-{[(4R)-4-Cyclopropyl-2,5-Dioxoimidazolidin-4-Yl]Methyl}-4′-(2,2-Difluorocyclopropyl)-5-Methyl[1,1′-Biphenyl]-2-Carboxamide], for which the pIC50 was 5.15.
